# Literature values, collected in patent publication US20220242810A1, “CRYSTALLINE CANNABIGEROL” (Purisys LLC, priority 2019, published 2022).
# Tests used:
# [1] = system: uptake of γ-aminobutyric acid (GABA)
# [2] = target: CBI receptor (Homo sapiens, UniProt P21554)
# [3] = system: colon cancer cells; details: one study
# [4] = system: α2-adrenergic receptor
# [5] = target: T1, 5-HT1A receptor (Homo sapiens, UniProt P08908)
# T1 sequence (P08908 1-422): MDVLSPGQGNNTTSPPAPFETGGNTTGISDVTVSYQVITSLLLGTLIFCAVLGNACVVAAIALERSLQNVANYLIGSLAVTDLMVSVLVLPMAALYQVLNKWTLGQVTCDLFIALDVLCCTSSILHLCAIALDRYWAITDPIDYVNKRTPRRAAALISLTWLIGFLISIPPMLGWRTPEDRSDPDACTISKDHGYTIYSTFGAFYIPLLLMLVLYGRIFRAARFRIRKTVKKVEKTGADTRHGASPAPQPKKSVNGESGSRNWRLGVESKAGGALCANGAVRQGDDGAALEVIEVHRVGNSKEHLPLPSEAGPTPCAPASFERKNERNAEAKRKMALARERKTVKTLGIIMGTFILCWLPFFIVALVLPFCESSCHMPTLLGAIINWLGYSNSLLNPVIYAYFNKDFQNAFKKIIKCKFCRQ
# [6] = target: CB2 receptor (Homo sapiens, UniProt P34972); details: unknown whether agonist or antagonist
# CB2 receptor, sequence (P34972 whole entry): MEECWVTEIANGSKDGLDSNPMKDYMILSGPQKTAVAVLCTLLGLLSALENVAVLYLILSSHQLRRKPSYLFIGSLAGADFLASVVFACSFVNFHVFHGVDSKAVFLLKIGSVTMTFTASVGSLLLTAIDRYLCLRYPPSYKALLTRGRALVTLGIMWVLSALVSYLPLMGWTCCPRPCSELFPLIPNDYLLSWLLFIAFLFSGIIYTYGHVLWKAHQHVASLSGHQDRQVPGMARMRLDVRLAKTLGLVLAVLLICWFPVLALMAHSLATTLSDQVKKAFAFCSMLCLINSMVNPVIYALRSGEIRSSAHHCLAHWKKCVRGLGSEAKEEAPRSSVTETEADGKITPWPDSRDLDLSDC
# [7] = rats
# [8] = in vivo
# CBI receptor, sequence (P21554 whole entry): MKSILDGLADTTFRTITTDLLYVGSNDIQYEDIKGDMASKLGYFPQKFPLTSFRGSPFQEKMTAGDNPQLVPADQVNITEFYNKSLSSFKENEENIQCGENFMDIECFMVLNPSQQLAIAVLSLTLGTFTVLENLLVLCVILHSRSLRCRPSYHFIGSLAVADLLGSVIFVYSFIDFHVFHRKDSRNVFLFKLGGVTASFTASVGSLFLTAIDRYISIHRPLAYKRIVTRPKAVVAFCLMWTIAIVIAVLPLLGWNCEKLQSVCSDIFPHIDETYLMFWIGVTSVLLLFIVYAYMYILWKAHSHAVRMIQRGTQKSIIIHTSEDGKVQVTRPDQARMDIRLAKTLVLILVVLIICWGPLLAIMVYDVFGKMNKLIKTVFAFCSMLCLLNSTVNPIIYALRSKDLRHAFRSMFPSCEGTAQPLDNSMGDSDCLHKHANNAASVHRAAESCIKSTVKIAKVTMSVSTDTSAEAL
smiles,measurement,setting,value
"CCCCCc1cc(O)c(C/C=C(\C)CCC=C(C)C)c(O)c1 [CBG, 2-[(2E)-3,7-dimethylocta-2,6-dienyl]-5-pentyl-benzene-1,3-diol]",uptake of γ-aminobutyric acid (GABA) in the brain,[1],inhibits the uptake
same,affinity as CBI receptor antagonist,[2],low affinity
same,growth of colon cancer cells,[3],inhibits the growth
same,affinity as α2-adrenergic receptor agonist,[4],high affinity
same,affinity as 5-HT1A receptor antagonist,[5],moderate affinity
same,binding with the CB2 receptor,[6],known to bind
same,anti-nausea and anti-emetic effect,[7],anti-nausea and anti-emetic effect
same,effect on intraocular pressure,[8],relieve intraocular pressure
